Test results taken from PubChem BioAssay AID2060904 (Molecular Pharmacology Branch, DTP, NCI, 2025).
pIC50: −log10 of the molar value. Values belong to the molecule of their own block, whether it stands above or below them.

Tested on: 349418-098-R-PDC complex spheroid viability
Assay: Anticancer human tumor 349418-098-R-PDC patient-derived lung adenocarcinoma cell line growth inhibition [RAS]
Details: for pIC50: curve of first compound; for viability, T/C: stronger effect = lower value
Procedure, shortened: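 Tumour cells grown as complex spheroids with HUVEC endothelial cells and mesenchymal stem cells, treated with RAS pathway inhibitor combinations. Each agent spans half-log steps from near clinical Cmax, or 10 microM where Cmax is unknown.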

[1] = second compound 0.000949 µM, first compound 0.0316 µM
[2] = second compound 0.000949 µM, first compound 0.1 µM
[3] = second compound 0.000949 µM, first compound 0.316 µM
[4] = second compound 0.000949 µM, first compound 1 µM
[5] = second compound 0.003 µM, first compound 0.0316 µM
[6] = second compound 0.003 µM, first compound 0.1 µM
[7] = second compound 0.003 µM, first compound 0.316 µM
[8] = second compound 0.003 µM, first compound 1 µM
[9] = second compound 0.00949 µM, first compound 0.0316 µM
[10] = second compound 0.00949 µM, first compound 0.1 µM
[11] = second compound 0.00949 µM, first compound 0.316 µM
[12] = second compound 0.00949 µM, first compound 1 µM
[13] = second compound 0.03 µM, first compound 0.0316 µM
[14] = second compound 0.03 µM, first compound 0.1 µM
[15] = second compound 0.03 µM, first compound 0.316 µM
[16] = second compound 0.03 µM, first compound 1 µM
[17] = second compound 0.0949 µM, first compound 0.0316 µM
[18] = second compound 0.0949 µM, first compound 0.1 µM
[19] = second compound 0.0949 µM, first compound 0.316 µM
[20] = second compound 0.0949 µM, first compound 1 µM
[21] = second compound 0.3 µM, first compound 0.0316 µM
[22] = second compound 0.3 µM, first compound 0.1 µM
[23] = second compound 0.3 µM, first compound 0.316 µM
[24] = second compound 0.3 µM, first compound 1 µM
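Also: spheroids exposed to compound for seven days before viability readout.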

pIC50 (second compound 0.000949 µM): > 8.50
pIC50 (second compound 0.003 µM): > 8.50
pIC50 (second compound 0.00949 µM): > 8.50
pIC50 (second compound 0.03 µM): > 8.50
pIC50 (second compound 0.0949 µM): > 8.50
pIC50 (second compound 0.3 µM): > 8.50
SMILES: O=C(c1ccc(F)c(F)c1Nc1ccc(I)cc1F)N1CC(O)([C@@H]2CCCCN2)C1 + CCn1c(-c2cccnc2C(C)OC)c2c3cc(ccc31)N1CCOC(CC(NC(=O)C(C(C)C)N(C)C(=O)C3(F)CCN(C(=O)C#CC(C)(C)N(C)C)CC3)C(=O)N3CCCC(N3)C(=O)OCC(C)(C)C2)C1
viability, T/C (second compound 0.000949 µM, first compound 0.00316 µM): 26.5%
viability, T/C (second compound 0.000949 µM, first compound 0.01 µM): 22.8%
viability, T/C [1]: 15.6%
viability, T/C [2]: 12.7%
viability, T/C [3]: 7.76%
viability, T/C [4]: 5.98%
viability, T/C (second compound 0.003 µM, first compound 0.00316 µM): 29.4%
viability, T/C (second compound 0.003 µM, first compound 0.01 µM): 24.1%
viability, T/C [5]: 17.2%
viability, T/C [6]: 11.3%
viability, T/C [7]: 6.93%
viability, T/C [8]: 5.43%
viability, T/C (second compound 0.00949 µM, first compound 0.00316 µM): 28.6%
viability, T/C (second compound 0.00949 µM, first compound 0.01 µM): 17.8%
viability, T/C [9]: 14.9%
viability, T/C [10]: 10.6%
viability, T/C [11]: 7.5%
viability, T/C [12]: 6.07%
viability, T/C (second compound 0.03 µM, first compound 0.00316 µM): 30.2%
viability, T/C (second compound 0.03 µM, first compound 0.01 µM): 14.9%
viability, T/C [13]: 15.8%
viability, T/C [14]: 12%
viability, T/C [15]: 7.23%
viability, T/C [16]: 5.04%
viability, T/C (second compound 0.0949 µM, first compound 0.00316 µM): 27.1%
viability, T/C (second compound 0.0949 µM, first compound 0.01 µM): 17.5%
viability, T/C [17]: 13.2%
viability, T/C [18]: 10.3%
viability, T/C [19]: 6.84%
viability, T/C [20]: 5.79%
viability, T/C (second compound 0.3 µM, first compound 0.00316 µM): 30.1%
viability, T/C (second compound 0.3 µM, first compound 0.01 µM): 15.8%
viability, T/C [21]: 12.9%
viability, T/C [22]: 11.1%
viability, T/C [23]: 7.31%
viability, T/C [24]: 5.8%

pIC50 (second compound 0.0316 µM): 6.47
pIC50 (second compound 0.1 µM): 6.24
pIC50 (second compound 0.316 µM): 6.73
pIC50 (second compound 1 µM): 6.46
pIC50 (second compound 3.16 µM): 6.28
pIC50 (second compound 10 µM): 7.46
SMILES: CC(C)NCC(C(=O)N1CCN(c2ncnc3c2C(C)CC3O)CC1)c1ccc(Cl)cc1 (stereo unspecified) + C#Cc1c(F)ccc2cc(O)cc(-c3ncc4c(N5CC6CCC(C5)N6)nc(OCC56CCCN5CC(F)C6)nc4c3F)c12
viability, T/C (second compound 0.0316 µM, first compound 0.0316 µM): 84%
viability, T/C (second compound 0.0316 µM, first compound 0.1 µM): 59.1%
viability, T/C (second compound 0.0316 µM, first compound 0.316 µM): 60.1%
viability, T/C (second compound 0.0316 µM, first compound 1 µM): 29.7%
viability, T/C (second compound 0.0316 µM, first compound 3.16 µM): 25.2%
viability, T/C (second compound 0.0316 µM, first compound 10 µM): 9.07%
viability, T/C (second compound 0.1 µM, first compound 0.0316 µM): 62.7%
viability, T/C (second compound 0.1 µM, first compound 0.1 µM): 78.9%
viability, T/C (second compound 0.1 µM, first compound 0.316 µM): 68.8%
viability, T/C (second compound 0.1 µM, first compound 1 µM): 32.4%
viability, T/C (second compound 0.1 µM, first compound 3.16 µM): 20.9%
viability, T/C (second compound 0.1 µM, first compound 10 µM): 11.5%
viability, T/C (second compound 0.316 µM, first compound 0.0316 µM): 72.6%
viability, T/C (second compound 0.316 µM, first compound 0.1 µM): 46.6%
viability, T/C (second compound 0.316 µM, first compound 0.316 µM): 51.7%
viability, T/C (second compound 0.316 µM, first compound 1 µM): 31.1%
viability, T/C (second compound 0.316 µM, first compound 3.16 µM): 21.5%
viability, T/C (second compound 0.316 µM, first compound 10 µM): 8.74%
viability, T/C (second compound 1 µM, first compound 0.0316 µM): 75%
viability, T/C (second compound 1 µM, first compound 0.1 µM): 54.8%
viability, T/C (second compound 1 µM, first compound 0.316 µM): 62.9%
viability, T/C (second compound 1 µM, first compound 1 µM): 28.8%
viability, T/C (second compound 1 µM, first compound 3.16 µM): 27.3%
viability, T/C (second compound 1 µM, first compound 10 µM): 7.4%
viability, T/C (second compound 3.16 µM, first compound 0.0316 µM): 61.9%
viability, T/C (second compound 3.16 µM, first compound 0.1 µM): 75.1%
viability, T/C (second compound 3.16 µM, first compound 0.316 µM): 55.1%
viability, T/C (second compound 3.16 µM, first compound 1 µM): 39.2%
viability, T/C (second compound 3.16 µM, first compound 3.16 µM): 19.7%
viability, T/C (second compound 3.16 µM, first compound 10 µM): 10.7%
viability, T/C (second compound 10 µM, first compound 0.0316 µM): 60.7%
viability, T/C (second compound 10 µM, first compound 0.1 µM): 26.3%
viability, T/C (second compound 10 µM, first compound 0.316 µM): 28.1%
viability, T/C (second compound 10 µM, first compound 1 µM): 47.3%
viability, T/C (second compound 10 µM, first compound 3.16 µM): 16.9%
viability, T/C (second compound 10 µM, first compound 10 µM): 3.22%

pIC50 (second compound 0.000949 µM): < 5.00
pIC50 (second compound 0.003 µM): < 5.00
pIC50 (second compound 0.00949 µM): < 5.00
pIC50 (second compound 0.03 µM): < 5.00
pIC50 (second compound 0.0949 µM): < 5.00
pIC50 (second compound 0.3 µM): < 5.00
SMILES: Cc1nc(N2CCC3(CC2)COC(C)C3N)c(CO)nc1Sc1ccnc(N)c1Cl (stereo unspecified) + CCn1c(-c2cc(N3CCN(C)CC3)cnc2C(C)OC)c2c3cc(ccc31)-c1csc(n1)CC(NC(=O)C1CC1C)C(=O)N1CCCC(N1)C(=O)OCC(C)(C)C2
viability, T/C [1]: 90.4%
viability, T/C [2]: 99.3%
viability, T/C [3]: 88.4%
viability, T/C [4]: 102%
viability, T/C (second compound 0.000949 µM, first compound 3.16 µM): 97.2%
viability, T/C (second compound 0.000949 µM, first compound 10 µM): 95.7%
viability, T/C [5]: 114%
viability, T/C [6]: 103%
viability, T/C [7]: 104%
viability, T/C [8]: 103%
viability, T/C (second compound 0.003 µM, first compound 3.16 µM): 100%
viability, T/C (second compound 0.003 µM, first compound 10 µM): 95.8%
viability, T/C [9]: 111%
viability, T/C [10]: 89.2%
viability, T/C [11]: 97.1%
viability, T/C [12]: 112%
viability, T/C (second compound 0.00949 µM, first compound 3.16 µM): 114%
viability, T/C (second compound 0.00949 µM, first compound 10 µM): 115%
viability, T/C [13]: 96%
viability, T/C [14]: 106%
viability, T/C [15]: 105%
viability, T/C [16]: 99.1%
viability, T/C (second compound 0.03 µM, first compound 3.16 µM): 106%
viability, T/C (second compound 0.03 µM, first compound 10 µM): 90.6%
viability, T/C [17]: 104%
viability, T/C [18]: 114%
viability, T/C [19]: 79%
viability, T/C [20]: 92%
viability, T/C (second compound 0.0949 µM, first compound 3.16 µM): 102%
viability, T/C (second compound 0.0949 µM, first compound 10 µM): 104%
viability, T/C [21]: 109%
viability, T/C [22]: 106%
viability, T/C [23]: 100%
viability, T/C [24]: 107%
viability, T/C (second compound 0.3 µM, first compound 3.16 µM): 115%
viability, T/C (second compound 0.3 µM, first compound 10 µM): 115%
